From the NIST ThermoML archive (doi:10.1016/j.jct.2004.12.014)

What was measured:
[1] = xn = mol fraction of the nth substance listed; settings: 318.15 K, 101 kPa, Liquid
[2] = excess molar enthalpy (molar enthalpy of mixing); xn = mol fraction of the nth substance listed; settings: 318.15 K, 101 kPa, Liquid

CCCCCCCCCCCCC [tridecane] + CCCOC(=O)CC
Settings | excess molar enthalpy [kcal/mol] | excess molar volume [m3/mol]
[1], x2 = 0.1068 | – | 3.54e-07
[1], x2 = 0.2003 | – | 6.1e-07
[1], x2 = 0.2831 | – | 7.8e-07
[1], x2 = 0.3626 | – | 8.99e-07
[1], x2 = 0.4343 | – | 9.83e-07
[1], x2 = 0.4988 | – | 1.001e-06
[1], x2 = 0.5633 | – | 1.013e-06
[1], x2 = 0.6197 | – | 9.68e-07
[1], x2 = 0.6738 | – | 9.29e-07
[1], x2 = 0.7241 | – | 8.44e-07
[1], x2 = 0.7705 | – | 7.66e-07
[1], x2 = 0.8135 | – | 6.6e-07
[1], x2 = 0.8558 | – | 5.36e-07
[1], x2 = 0.8941 | – | 4.18e-07
[1], x2 = 0.9306 | – | 2.67e-07
[1], x2 = 0.9641 | – | 1.43e-07
[2], x2 = 0.0771 | 0.0824 | –
[2], x2 = 0.1623 | 0.154 | –
[2], x2 = 0.248 | 0.217 | –
[2], x2 = 0.3288 | 0.264 | –
[2], x2 = 0.4032 | 0.294 | –
[2], x2 = 0.471 | 0.31 | –
[2], x2 = 0.5295 | 0.315 | –
[2], x2 = 0.5719 | 0.311 | –
[2], x2 = 0.5818 | 0.308 | –
[2], x2 = 0.6224 | 0.298 | –
[2], x2 = 0.6662 | 0.283 | –
[2], x2 = 0.7127 | 0.261 | –
[2], x2 = 0.7593 | 0.232 | –
[2], x2 = 0.8089 | 0.199 | –
[2], x2 = 0.8585 | 0.161 | –
[2], x2 = 0.9084 | 0.114 | –
[2], x2 = 0.9562 | 0.0607 | –

CCCCCCCCCCCCC [tridecane] + CCOC(=O)CC
Settings | excess molar enthalpy [kcal/mol] | excess molar volume [m3/mol]
[1], x2 = 0.0553 | – | 2.18e-07
[1], x2 = 0.1314 | – | 4.88e-07
[1], x2 = 0.2286 | – | 7.67e-07
[1], x2 = 0.3064 | – | 9.41e-07
[1], x2 = 0.3982 | – | 1.105e-06
[1], x2 = 0.4702 | – | 1.178e-06
[1], x2 = 0.5353 | – | 1.203e-06
[1], x2 = 0.6003 | – | 1.177e-06
[1], x2 = 0.6545 | – | 1.134e-06
[1], x2 = 0.7057 | – | 1.072e-06
[1], x2 = 0.7518 | – | 9.93e-07
[1], x2 = 0.7964 | – | 8.81e-07
[1], x2 = 0.8358 | – | 7.55e-07
[1], x2 = 0.8729 | – | 6.38e-07
[1], x2 = 0.9066 | – | 4.97e-07
[1], x2 = 0.9396 | – | 3.51e-07
[1], x2 = 0.9702 | – | 2.08e-07
[2], x2 = 0.0944 | 0.112 | –
[2], x2 = 0.189 | 0.201 | –
[2], x2 = 0.282 | 0.274 | –
[2], x2 = 0.366 | 0.326 | –
[2], x2 = 0.4354 | 0.355 | –
[2], x2 = 0.4882 | 0.367 | –
[2], x2 = 0.5339 | 0.372 | –
[2], x2 = 0.5841 | 0.371 | –
[2], x2 = 0.6332 | 0.361 | –
[2], x2 = 0.6564 | 0.351 | –
[2], x2 = 0.6775 | 0.343 | –
[2], x2 = 0.6925 | 0.335 | –
[2], x2 = 0.7364 | 0.306 | –
[2], x2 = 0.7802 | 0.271 | –
[2], x2 = 0.8254 | 0.228 | –
[2], x2 = 0.8702 | 0.181 | –
[2], x2 = 0.9163 | 0.127 | –
[2], x2 = 0.9613 | 0.0636 | –

CCCCCCCCCCC [undecane] + CCCOC(=O)CC
Settings | excess molar enthalpy [kcal/mol] | excess molar volume [m3/mol]
[1], x2 = 0.0413 | – | 1.53e-07
[1], x2 = 0.0923 | – | 3.2e-07
[1], x2 = 0.1761 | – | 5.43e-07
[1], x2 = 0.2561 | – | 7.24e-07
[1], x2 = 0.3307 | – | 8.39e-07
[1], x2 = 0.3986 | – | 9.06e-07
[1], x2 = 0.4638 | – | 9.37e-07
[1], x2 = 0.5278 | – | 9.47e-07
[1], x2 = 0.587 | – | 9.43e-07
[1], x2 = 0.6412 | – | 8.99e-07
[1], x2 = 0.6944 | – | 8.36e-07
[1], x2 = 0.744 | – | 7.6e-07
[1], x2 = 0.7913 | – | 6.62e-07
[1], x2 = 0.8364 | – | 5.52e-07
[1], x2 = 0.8799 | – | 4.45e-07
[1], x2 = 0.9196 | – | 2.93e-07
[1], x2 = 0.9603 | – | 1.75e-07
[2], x2 = 0.0636 | 0.0667 | –
[2], x2 = 0.1368 | 0.127 | –
[2], x2 = 0.2052 | 0.179 | –
[2], x2 = 0.2811 | 0.228 | –
[2], x2 = 0.355 | 0.26 | –
[2], x2 = 0.4208 | 0.276 | –
[2], x2 = 0.4796 | 0.283 | –
[2], x2 = 0.5347 | 0.283 | –
[2], x2 = 0.5876 | 0.276 | –
[2], x2 = 0.6318 | 0.264 | –
[2], x2 = 0.6804 | 0.246 | –
[2], x2 = 0.7305 | 0.219 | –
[2], x2 = 0.7842 | 0.188 | –
[2], x2 = 0.8388 | 0.149 | –
[2], x2 = 0.8946 | 0.104 | –
[2], x2 = 0.9488 | 0.0549 | –

CCCCCCCCCCC [undecane] + CCOC(=O)CC
Settings | excess molar enthalpy [kcal/mol] | excess molar volume [m3/mol]
[1], x2 = 0.0488 | – | 2.1e-07
[1], x2 = 0.1093 | – | 4.32e-07
[1], x2 = 0.1996 | – | 6.94e-07
[1], x2 = 0.2885 | – | 9.21e-07
[1], x2 = 0.3652 | – | 1.049e-06
[1], x2 = 0.4355 | – | 1.121e-06
[1], x2 = 0.5015 | – | 1.154e-06
[1], x2 = 0.5629 | – | 1.147e-06
[1], x2 = 0.621 | – | 1.119e-06
[1], x2 = 0.6752 | – | 1.071e-06
[1], x2 = 0.7242 | – | 9.82e-07
[1], x2 = 0.7714 | – | 8.93e-07
[1], x2 = 0.816 | – | 7.79e-07
[1], x2 = 0.8558 | – | 6.55e-07
[1], x2 = 0.895 | – | 5.1e-07
[1], x2 = 0.9301 | – | 3.49e-07
[1], x2 = 0.9671 | – | 2.01e-07
[2], x2 = 0.0755 | 0.0914 | –
[2], x2 = 0.1612 | 0.168 | –
[2], x2 = 0.2482 | 0.238 | –
[2], x2 = 0.3331 | 0.29 | –
[2], x2 = 0.4028 | 0.32 | –
[2], x2 = 0.4629 | 0.336 | –
[2], x2 = 0.5094 | 0.341 | –
[2], x2 = 0.5483 | 0.34 | –
[2], x2 = 0.5806 | 0.336 | –
[2], x2 = 0.6255 | 0.325 | –
[2], x2 = 0.6622 | 0.311 | –
[2], x2 = 0.7018 | 0.292 | –
[2], x2 = 0.7511 | 0.261 | –
[2], x2 = 0.7996 | 0.225 | –
[2], x2 = 0.8514 | 0.177 | –
[2], x2 = 0.9026 | 0.125 | –
[2], x2 = 0.9521 | 0.0667 | –
